Assay results taken from patent US20090317376A1, “Compositions And Methods For Lipo Modeling” (Georgetown University MEDICAL SCHOOL, priority 2005, published 2009).
Entries after “also recorded” stand apart in the source; their conditions may differ.

Tests used:
endothelial cells = assay: Endothelial cell proliferation (mitogenic assay); assay type: cell-based, human
From the text: To mimic stress-released NPY in vitro, conditioned media from, or coculture with, neuroblastoma SKNBE cells (a model of sympathetic neurons which release 0.1 pM NPY) is used to treat endothelial cells and 3T3-L1 preadipocytes. Both cell lines express all NPYRs but lack NPY (confirmed by RT-PCR and IHC, FIG. […] 6). […] When 3T3-L1 preadipocytes are cocultured with HMVEC, there is no significant mitogenic response between treated and untreated cells.
Co-culture: For mitogenic assay and expression studies, co-culture is performed in a Costar Transwell system. Cells are plated on the 6-well plates and the inserts with 0.4 μm Polyester membranes. After they reach 30% confluence, the inserts are placed into plates with other cells. Co-culture of neuroblastomas/SCG neurons with aECs are carried out in EC media and with preadipocytes—in preadipocyte growth media. […] After 48 h, the cells are counted with a coulter counter. […]
Mitogenic assays: 3T3-L1 pre-adipocytes are allowed to grow to 30% confluency before serum-starving the cells. […] Proliferation is determined by cell counting using a coulter counter (Beckman Coulter, Miami, Fla.). […] After 24 h, cells are harvested in a 96-well harvester (Tomtec) and counted in a Betaplate Liquid Scintillation Counter (Wallac).
1. […] After 24 h, cells were harvested in a 96-well harvester (Tomtec) and counted in a Betaplate Liquid Scintillation Counter (Wallac). […]

abdominal fat = assay: Stress and high-fat diet induced obesity model; assay type: in vivo, mice
Method: In environmentally-induced obese mice, normal NWT C57BL/6 and SV129 mice are subjected to low levels of chronic stress (cold stress, 1 cm ice-water bath at the base of the cage for 1 hour, a technique that increases NPY and stimulates vascular growth) and fed a high-fat, “comfort food” diet consisting of lard and sucrose (standard chow diet/high fat diet: fat: 12%/45%, carbohydrates: 60%/35%, and protein: 28%/20%). These mice are treated with NPY, Y2R agonists and Y2R antagonists. The growth of fat deposits is monitored by MRI and vascularization is confirmed by immunohistochemistry (IHC). ELISA, IHC, and quantitative real-time RT-PCR are used to determine how diet and stress affect NPY and Y2R levels. Core body temperature and food intake are monitored to determine changes in metabolism (FIG. 15). Glucose tolerance tests and lipid profiles of the mice are used to determine whether altering adipose mass results in a change in insulin, glucose, FFA, TG or cholesterol in the plasma (FIG. 18).
Magnetic Resonance Imaging (MRI): A Brukker 7-Tesla small-animal magnetic resonance imager coil is used to visualize and noninvasively quantitate various fat depots. A 3-dimensional (3D) T2-weighted (T2W) imaging protocol optimized for high contrast fat-imaging is implemented. […] Quantification of the total body fat as well as separate specific fat depots is calculated using thresholding and voxel count plugins from NIH image J software. VolumeJ is used to render, in a 3D image, the various fat depots. The animal management system that is used in conjunction with the MRI is equipped to take core, skin, ambient and water blanket temperature measurements that are monitored during the imaging. The water blanket is used to regulate core temperature of the rodent during anesthesia. […]
High fat diet: Mice are given either a Standard Chow (SC) diet: 28% protein, 60% carbohydrate, 12% fat (4 kcal/gm) or a High Fat (HF) diet: 20% protein, 35% carbohydrate, 45% fat (4.7 kcal/gm) from Research Diets for 14-28 days. Food consumption is measured daily from the various treatment groups and pairfeeding ensures that changes seen in weight and visceral fat are due to the peripheral effects of the treatment. […]

[1] = intra-fat injection, HF and stress
[2] = local Y2R antagonist, stress and HF-diet
[3] = local intra-fat injections, within 2-weeks, HF + stress

Compound: N=C(N)NCCC[C@H](NC(=O)CC1(CC(=O)N2CCN(C3c4ccccc4NC(=O)c4ccccc43)CC2)CCCC1)C(=O)NCCn1c(=O)n(-c2ccccc2)n(-c2ccccc2)c1=O (stereo partly shown) [BIIE0246]
- block of NPY- and neuroblastoma-conditioned media-stimulated endothelial cell proliferation (endothelial cells; BIIE0246 1 μM): blocked
- stress-amplification of visceral fat (MRI fat volume fraction) (abdominal fat; four weeks daily 1-hr cold stress + high fat diet): reversed
- stress-induced insulin-to-NPY switch and metabolic abnormalities (abdominal fat; intra-fat administration): fully prevented
- fat mass (abdominal fat; [1]): reduced fat mass
- imbalance of NPY-to-epinephrine plasma levels (abdominal fat; [1]): reversed this imbalance
- stress+HF-induced hyperlipidemia (abdominal fat; intra-fat injections): did not alter
- UCP-1/2 expression in WAT (abdominal fat; intra-fat injections, stress+HF): did not alter
- adipocyte apoptosis (TUNEL) (abdominal fat; [2]): increased their apoptosis
- adipocyte proliferation (Ki67+ staining) (abdominal fat; [2]): inhibited adipocyte proliferation
- insulin levels (abdominal fat; [3]): increased insulin levels
- metabolic profile (abdominal fat; [3]): improved metabolic profile
- plasma NPY levels (abdominal fat; [3]): normalized
- plasma adipokine levels (abdominal fat; [3]): normalized
- tissue steatosis (liver and skeletal muscle) (abdominal fat; local intra-fat injections, HF + stress, listed as Y2R antagonist): inhibited tissue steatosis; also recorded: reduced liver and skeletal muscle steatosis
- visceral fat (abdominal fat; nonstressed WT mice, FIG. 17): significant reduction in visceral fat
- lowered plasma osteocalcin levels (bone loss response) (abdominal fat; stress combined with HF, intra-fat delivery): completely normalized
- stress-induced WAT cellularity, proliferation of small adipocytes (abdominal fat; stress in HF-fed mice): reversed
- visceral fat volume fraction (abdominal fat; stressed C57BL/6 WT mice, FIG. 17): reversed
- other fat depots (abdominal fat; stressed HF-fed mice, 2-weeks): without significantly changing other depots
- reduction of abdominal (subcutaneous and visceral) depot (abdominal fat; stressed HF-fed mice, pellet 10 μg/14 days or daily injections 1 μM, 2-weeks): 40%
- visceral fat volume fraction (abdominal fat; stressed SV129 mice on high-fat diet, Y2R antagonist slow-release pellets, FIG. 16): reduced to a level that is comparable to nonstressed SV129 mice given a placebo pellet

Compound: neuropeptide Y [NPY]
- endothelial cell proliferation (endothelial cells; NPY treatment of endothelial cells): stimulated
